A short description of data set [1]: Acute toxicity in po dosed Rattus norvegicus Wistar (rat). It is filed as organism-based. The settings on record: in vivo.
Data set [2] relates to Brassica napus. Put plainly: Herbicidal activity against Brassica napus (oilseed rape) measured at 4 weeks post-drug dosage. The format is functional, organism-based.
For the next data set, the system named is Centaurea cyanus. As to the kind of experiment: Herbicidal activity against Centaurea cyanus measured at 4 weeks post-drug dosage. It is filed as functional, organism-based.
The test system of data set [3] is Triticum aestivum. As to the kind of experiment: Reduction in Triticum aestivum (wheat) stem length applied at the end of tillering stage of crop measured at 4 weeks post-drug dosage. It is filed as functional, organism-based.
Data set [4] concerns Thlaspi arvense. Put plainly: Herbicidal activity against Thlaspi arvense measured at 4 weeks post-drug dosage. The format is functional, organism-based.
The subject of a further data set is Chenopodium album. As to the kind of experiment: Herbicidal activity against Chenopodium album measured at 4 weeks post-drug dosage. The format is functional, organism-based.
Another data set deals with Viola arvensis. Put plainly: Herbicidal activity against Viola arvensis measured at 4 weeks post-drug dosage. It is filed as functional, organism-based.
Another data set concerns Myosotis arvensis. As to the kind of experiment: Herbicidal activity against Myosotis arvensis measured at 4 weeks post-drug dosage. The format is functional, organism-based.
A further data set concerns Euphorbia helioscopia. As to the kind of experiment: Herbicidal activity against Euphorbia helioscopia measured at 4 weeks post-drug dosage. It is filed as functional, organism-based.
The subject of data set [5] is Triticum aestivum. Put plainly: Increase in winter Triticum aestivum (wheat) crop yield assessed as weight of 1000 grains at 600 g/ha applied at the end of tillering stage of crop measured at 4 weeks post-drug dosage (reference value: 37.79 g). The format is functional.
The subject of data set [6] is Consolida regalis. As to the kind of experiment: Herbicidal activity against Consolida regalis in winter wheat crop field at 600 g/ha applied at the end of tillering stage of crop measured at 4 weeks post-drug dosage. It is filed as functional.
The test system of data set [7] is Triticum aestivum. Put plainly: Increase in winter Triticum aestivum (wheat) crop yield assessed as gluten content at 600 g/ha applied at the end of tillering stage of crop measured at 4 weeks post-drug dosage (reference value: 25.95%). The format is functional.
In data set [8] the test system is Triticum aestivum. Put plainly: Increase in winter Triticum aestivum (wheat) crop yield assessed as protein content at 600 g/ha applied at the end of tillering stage of crop measured at 4 weeks post-drug dosage (reference value: 11.12%). It is filed as functional.
For data set [9], the system named is Thlaspi arvense. As to the kind of experiment: Herbicidal activity against Thlaspi arvense in winter wheat crop field at 600 g/ha applied at the end of tillering stage of crop measured at 4 weeks post-drug dosage. It is filed as functional.
In data set [10] the test system is Triticum aestivum. As to the kind of experiment: Increase in winter Triticum aestivum (wheat) crop yield at 600 g/ha applied at the end of tillering stage of crop measured at 4 weeks post-drug dosage (reference value: 7.40 t/ha). The format is functional.
For data set [11], the system named is Brassica napus. Put plainly: Herbicidal activity against Brassica napus (oilseed rape) in winter wheat crop field at 600 g/ha applied at the end of tillering stage of crop measured at 4 weeks post-drug dosage. The format is functional.
For data set [12], the system named is Matricaria. As to the kind of experiment: Herbicidal activity against Matricaria inodora in winter wheat crop field at 600 g/ha applied at the end of tillering stage of crop measured at 4 weeks post-drug dosage. It is filed as functional.
The test system of data set [13] is Consolida regalis. As to the kind of experiment: Herbicidal activity against Consolida regalis in winter wheat crop field at 900 g/ha applied at the end of tillering stage of crop measured at 4 weeks post-drug dosage. The format is functional.
The subject of data set [14] is Brassica napus. Put plainly: Herbicidal activity against Brassica napus (oilseed rape) in winter wheat crop field at 900 g/ha applied at the end of tillering stage of crop measured at 4 weeks post-drug dosage. The format is functional.
The test system of data set [15] is Triticum aestivum. As to the kind of experiment: Increase in winter Triticum aestivum (wheat) crop yield assessed as gluten content at 900 g/ha applied at the end of tillering stage of crop measured at 4 weeks post-drug dosage (reference value: 25.95%). It is filed as functional.
The test system of data set [16] is Thlaspi arvense. As to the kind of experiment: Herbicidal activity against Thlaspi arvense in winter wheat crop field at 900 g/ha applied at the end of tillering stage of crop measured at 4 weeks post-drug dosage. It is filed as functional.
The subject of data set [17] is Triticum aestivum. Put plainly: Increase in winter Triticum aestivum (wheat) crop yield assessed as protein content at 900 g/ha applied at the end of tillering stage of crop measured at 4 weeks post-drug dosage (reference value: 11.12%). It is filed as functional.
Data set [18] concerns Triticum aestivum. As to the kind of experiment: Increase in winter Triticum aestivum (wheat) crop yield assessed as weight of 1000 grains at 900 g/ha applied at the end of tillering stage of crop measured at 4 weeks post-drug dosage (reference value: 37.79 g). It is filed as functional.
In data set [19] the test system is Matricaria. As to the kind of experiment: Herbicidal activity against Matricaria inodora in winter wheat crop field at 900 g/ha applied at the end of tillering stage of crop measured at 4 weeks post-drug dosage. It is filed as functional.
The subject of data set [20] is Triticum aestivum. Put plainly: Increase in winter Triticum aestivum (wheat) crop yield at 900 g/ha applied at the end of tillering stage of crop measured at 4 weeks post-drug dosage (reference value: 7.40 t/ha). The format is functional.

Activity calls are given as the source filed them. The calls are words filed in the database; no cut-off is given here.

A word on the LD50: it is the dose at which mortality reaches 50%. Read a low LD50 as a more toxic substance. For the compound `C[N+](C)(C)CCCl.[Cl-]` [CHLORMEQUAT CHLORIDE], the LD50 in data set [1] came to 1300 mg/kg.
With `C[N+](C)(C)CCl.Cc1cc(Cl)ccc1OCC(=O)[O-]` [listing 1 of 2 here], the median lethal dose (LD50) in [1] was 300 mg/kg.
For the compound `C[N+](C)(C)CCl.Cc1cc(Cl)ccc1OCC(=O)[O-]` [listing 2 of 2 here], the outcome in the data set on Brassica napus [2], in the data set with Centaurea cyanus, in the data set with Thlaspi arvense [4], in the data set with Chenopodium album, in the data set with Viola arvensis and with Myosotis arvensis was Active. The outcome in the data set with Euphorbia helioscopia was Active. Besides, the inhibition entry with Triticum aestivum [3] was “Active”.
In turn, `CCCCCCCCCC[N+](C)(C)CCCCCCCCCC.Cc1cc(Cl)ccc1OCC(=O)[O-]` came in with a 50% lethal dose (LD50) in data set [1] of 300 mg/kg.
On to `CCCCC(CC)OC(=O)COc1ccc(Cl)cc1C` (centres undefined), for which the Activity in the data set on Triticum aestivum [5] came out at 39.78 g; in the data set on Consolida regalis [6], 95%; with Triticum aestivum [7], 27.12%; in the data set with Triticum aestivum [8], 11.03%; with Thlaspi arvense [9], 100%; in the data set on Brassica napus [11] it was 100%. The Activity in the data set with Matricaria [12] amounted to 62%. Moreover, the median lethal dose (LD50) in data set [1] was 1300 mg/kg. The Crop_yield in the data set with Triticum aestivum [10] is 7.8 tons/ha.
In turn, `Cc1cc(Cl)ccc1OCC(=O)O` [METAXON] yielded an LD50 in data set [1] of 962 mg/kg.
Regarding `Cc1cc(Cl)ccc1OCC(=O)[O-].[Na+]`, the Activity in the data set with Consolida regalis [13] is 96%; with Brassica napus [14] it was 100%; in the data set on Triticum aestivum [15] it was 27.33%; with Thlaspi arvense [16], 100%; in the data set on Triticum aestivum [17], 11.08%; in the data set with Triticum aestivum [18] it was 39.3 g. Moreover, in the data set on Matricaria [19], the Activity is reported as 56%. Besides, in the data set on Triticum aestivum [20], the Crop_yield turned out to be 7.81 tons/ha.
